Test results reported in US5428019A, “Bombesin analogs” (Merrell Dow Pharmaceuticals Inc., priority 1994, dated 1995).
Blank lines part the entries; values can stand above or below the compound they belong to. Where a SMILES comes first, the peptide text is derived from it. [ ]: non-standard residue; d: D form. The star is where a group is joined. X2 = CC(C)C[C@@H](CN[C@@H](CC(C)C)C(N)=O)N*; Palmitoyl = CCCCCCCCCCCCCCCC(=O)*; pGlu = O=C1CC[C@@H](C(=O)O)N1; Lauroyl = CCCCCCCCCCCC(=O)*; Octanoyl = CCCCCCCC(=O)*

Target: T1, Bombesin Receptor (Mus musculus, UniProt P21729)
T1 construct: Pancreata from mice were chopped at 350 μm with a tissue chopper and pooled; from tissue; host or cells: chopped mouse pancreas
T1 sequence (P21729 whole entry): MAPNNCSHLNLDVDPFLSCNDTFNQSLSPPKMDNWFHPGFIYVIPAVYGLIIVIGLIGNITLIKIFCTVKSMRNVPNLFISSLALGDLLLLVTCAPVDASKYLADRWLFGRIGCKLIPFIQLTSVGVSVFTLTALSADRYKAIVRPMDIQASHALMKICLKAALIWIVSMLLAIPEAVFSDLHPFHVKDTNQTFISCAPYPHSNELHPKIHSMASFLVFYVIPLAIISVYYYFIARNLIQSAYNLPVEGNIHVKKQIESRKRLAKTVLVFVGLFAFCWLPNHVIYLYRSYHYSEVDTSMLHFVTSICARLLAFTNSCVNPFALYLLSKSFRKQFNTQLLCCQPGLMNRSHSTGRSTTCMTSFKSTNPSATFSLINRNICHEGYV
Assay: Phosphatidylinositol turnover in chopped mouse pancreas
Format: cell-based
Design: key to PI Turnover Agonist: (+) represents agonist activity; (-) indicates no agonist activity
Conditions: for PI Turnover % Inhibition: antagonist activity, referenced to the stimulation produced by 100 nM GRP
Method: Pancreata from mice were chopped at 350 μm with a tissue chopper and pooled. The chopped tissue was washed twice with oxygenated Krebs-Hepes, then incubated for 30 minutes in 37° C. oxygenated Krebs-Hepes buffer with fresh buffer after 15 minutes. The tissue was then incubated in this buffer containing 200 μCi of [^3 H] inositol at 37° C. for 1 hour. The tissue was then washed twice and incubated for another 30 minutes in oxygenated Krebs-Hepes (containing 10 mM Li^+) at 37° C. with a fresh buffer change after 15 minutes. Portions of the tissue mass (approximately 10 mg per assay tube) were then placed in Li^+ buffer with protease inhibitors, (40 μg/ml bacitracin, 4 μg/ml leupeptin, 4 μg/ml chymostatin, 8 μg/ml thiorphan), 0.1% BSA, and 0.1-10 μM peptide in a final volume of 250 μl. After 60 minutes at room temperature, the phosphatidylinositol turnover was terminated by the addition of 940 μl chloroform:methanol (1:2), followed by 310 μl chloroform, followed by 310 μl water. Each tube was then vortexed for 5 seconds and then centrifuged at 2500 x g for 10 minutes to separate the phases. 50 μl of the bottom phase (chloroform) was withdrawn from each tube and placed in a counting vial, dried, and counted in scintillation fluid. 900 μl of the top (aqueous) phase were then mixed with 2.1 ml water and loaded onto a 0.5 ml Biorad AG-1X8 (formate) ion exchange column. The material on the columns was washed in order with: 1) 10 ml of water 2) 5 ml of 5 mM disodium tetraborate/60 mM sodium formate 3) 10 ml of 1 M ammonium formate in 0.1 M formic acid. The final (third) wash was collected and one ml was mixed with 14 ml of Bio-Safe scintillant and counted. The ratio of these counts (total inositol phosphates) to the corresponding organic phase counts (inositol incorporated into the tissue) was then calculated for each sample. The ratios in the presence of test compound and/or standards were then compared to the ratios for control tubes (i.e., no stimulating agonist). The abilities of test compounds to stimulate phosphatidyl-inositol turnover were determined with the aid of a computer program. […] The ordinate (y-axis) indicates the observed PI turnover as a percentage of control. Values are mean±standard error of triplicate determinations.

PI Turnover Agonist: -
Compound: CCCCCCCC(=O)N[C@@H](CCC(N)=O)C(=O)N[C@@H](Cc1c[nH]c2ccccc12)C(=O)N[C@@H](C)C(=O)N[C@H](C(=O)N[C@H](C)C(=O)N[C@@H](Cc1c[nH]cn1)C(=O)N[C@@H](CC(C)C)C(N)=O)C(C)C [Octanoyl[D-Ala^11]bombesin(7-13)amide, Nα-octyl-Gln--Trp--Ala--Val-D-Ala--His--Leu--NH2] (Octanoyl-QWAV[dA]HL-NH2; N-terminus and C-terminus assumed)

PI Turnover % Inhibition: 53%
Compound: CCCCCCCCCCCC(=O)N[C@@H](CCC(N)=O)C(=O)N[C@@H](Cc1c[nH]c2ccccc12)C(=O)N[C@@H](C)C(=O)N[C@H](C(=O)N[C@H](C)C(=O)N[C@@H](Cc1c[nH]cn1)C(=O)N[C@@H](CC(C)C)C(N)=O)C(C)C [Lauryl[D-Ala^11]bombesin(7-13)amide, Nα-lauryl-Gln--Trp--Ala--Val-D-Ala--His--Leu--NH2] (Lauroyl-QWAV[dA]HL-NH2)

PI Turnover Agonist: - | PI Turnover % Inhibition: 24%
Compound: CC(=O)N[C@@H](CCC(N)=O)C(=O)N[C@@H](Cc1c[nH]c2ccccc12)C(=O)N[C@@H](C)C(=O)N[C@H](C(=O)N[C@H](C)C(=O)N[C@@H](Cc1c[nH]cn1)C(=O)N[C@@H](CC(C)C)C(N)=O)C(C)C [Acetyl[D-Ala^11]bombesin(7-13)amide, Nα-acetyl-Gln--Trp--Ala--Val-D-Ala--His--Leu--NH2] (Ac-QWAV[dA]HL-NH2)

The remaining lines, values behind:

Compound: CC(C)C[C@@H](CN[C@@H](CC(C)C)C(N)=O)NC(=O)[C@H](Cc1c[nH]cn1)NC(=O)CNC(=O)[C@@H](NC(=O)[C@H](C)NC(=O)[C@H](Cc1c[nH]c2ccccc12)NC(=O)[C@H](CCC(N)=O)NC(=O)[C@H](CC(N)=O)NC(=O)CNC(=O)[C@H](CC(C)C)NC(=O)[C@H](CCCNC(=N)N)NC(=O)[C@H](CCC(N)=O)NC(=O)[C@@H]1CCC(=O)N1)C(C)C [[Leu^13 .psi.{CH2 NH]Leu^14]bombesin, pGlu--Gln--Arg--Leu--Gly--Asn--Gln--Trp--Ala--Val--Gly--His--Leu.psi.[CH2 N]Leu--NH2, reference compound] ([pGlu]QRLGNQWAVGH-X2)
PI Turnover % Inhibition: 30%

Compound: CC(C)C[C@@H](C(N)=O)[S+]([O-])C[C@H](Cc1ccccc1)NC(=O)[C@H](Cc1c[nH]cn1)NC(=O)CNC(=O)[C@@H](NC(=O)[C@H](C)NC(=O)[C@H](Cc1c[nH]c2ccccc12)NC(=O)[C@H](CCC(N)=O)NC(=O)[C@@H]1CCC(=O)N1)C(C)C (single isomer, unassigned) [[Phe^8 .psi.[CH2 S(O)]Leu^9 ]litorin I] [pGlu--Gln--Trp--Ala--Val--Gly--His--Phe.psi.[CH2 S(O)]Leu--NH2]
PI Turnover % Inhibition: 53%

Compound: CC(C)C[C@H](SC[C@H](Cc1ccccc1)NC(=O)[C@H](Cc1c[nH]cn1)NC(=O)CNC(=O)[C@@H](NC(=O)[C@H](C)NC(=O)[C@H](Cc1c[nH]c2ccccc12)NC(=O)[C@H](CCC(N)=O)NC(=O)[C@@H]1CCC(=O)N1)C(C)C)C(N)=O [[Phe^8 .psi.[CH2 S]Leu^9]litorin, pGlu--Gln--Trp--Ala--Val--Gly--His--Phe.psi.[CH2 S]Leu--NH2]
PI Turnover % Inhibition: 42%

Compound: CC(C)C[C@@H](C(N)=O)[S+]([O-])C[C@H](Cc1ccccc1)NC(=O)[C@H](Cc1c[nH]cn1)NC(=O)CNC(=O)[C@@H](NC(=O)[C@H](C)NC(=O)[C@H](Cc1c[nH]c2ccccc12)NC(=O)[C@H](CCC(N)=O)NC(=O)[C@@H]1CCC(=O)N1)C(C)C (single isomer, unassigned) [[Phe^8 .psi.[CH2 S(O)]Leu^9 ]litorin II] [pGlu--Gln--Trp--Ala--Val--Gly--His--Phe.psi.[CH2 S(O)]Leu--NH2]
PI Turnover % Inhibition: 83%

Compound: CCCCCCCCCCCCCCCC(=O)N[C@@H](CCC(N)=O)C(=O)N[C@@H](Cc1c[nH]c2ccccc12)C(=O)N[C@@H](C)C(=O)N[C@H](C(=O)N[C@H](C)C(=O)N[C@@H](Cc1c[nH]cn1)C(=O)N[C@@H](CC(C)C)C(N)=O)C(C)C [Palmityl[D-Ala^11]bombesin(7-13)amide, Nα-palmityl-Gln--Trp--Ala--Val-D-Ala--His--Leu--NH2] (Palmitoyl-QWAV[dA]HL-NH2)
PI Turnover % Inhibition: 45%
